# Measurements reported in US20230159538A1, “PYRROLIDINE-PYRAZOLES AS PYRUVATE KINASE ACTIVATORS” (Global Blood Therapeutics, Inc., priority 2020, published 2023).
# Molecular target: T1, Human pyruvate kinase R (PKR) (Homo sapiens, UniProt P30613)
# T1 construct: Human pyruvate kinase R (PKR), residues 14-574; 6x-His (N, cleaved yes); 8x-Arg (N, cleaved yes); SUMO (N, cleaved yes); host or cells: E. coli
# Test: Biochemical assay for activation of pyruvate kinase R (Kinase-Glo luminescence, ATP generation)
# Details: for AC50: 0.1 nM PKR, 2 mM FBP, 0.3 mM ADP, 0.1 mM PEP; for PKR % activation: maximal activation level relative to the activation level achieved by AG-348 @ 10 μM
# Method: Proteins were translated as fusions with 6×-His, 8×-Arg, and SUMO at the N-terminus. […] All proteins were cloned, expressed in E. coli, and purified using similar protocols. Cells were grown at 30° C. in Luria-Bertani broth supplemented with 0.4% glucose to OD600=0.8 and induced with 0.4 mM IPTG at 16° C. for 18 hours. Cells were harvested by centrifugation, resuspended in 50 mM potassium phosphate pH 8.0, 500 mM NaCl, 25 mM imidazole pH 8.0, and 3 mM β-mercaptoethanol. Cells were lysed using a LM20 microfluidizer from Microfluidics (Westwood, Mass.). The crude lysate was immediately supplemented with 0.2 mM phenylmethylsulfonyl fluoride (PMSF) and centrifuged at 20,000 g for 20 minutes. The soluble fraction was subsequently incubated with 2 mL Ni-NTA (GE Healthcare) per 1,000 ODs for 1 hour at 4° C. Following incubation with the Ni-NTA resin, lysate was removed by pelleting resin at 2,500 g for 3 minutes and washed 3 times with 9 bed volumes of 50 mM potassium phosphate pH 8.0, 500 mM NaCl, 25 mM imidazole, and 3 mM β-mercaptoethanol. Following the batch wash Ni-NTA resin was loaded onto a gravity column and His-tagged protein was eluted with 6 bed volumes of 10 mM Tris/HCl pH 8.0, 200 mM NaCl, 500 mM imidazole, and 3 mM β-mercaptoethanol. Eluted protein was dialyzed overnight against 10 mM Tris/HCl pH 8.0, 200 mM NaCl, and 1 mM DTT and the 6×-His-8×-Arg-SUMO-tag was cleaved using a 20:1 molar ratio of protein:3C protease. The protein was purified by anion exchange chromatography on a HiTrapQ or MonoQ 10/100 GL column (GE Healthcare) via a linear NaCl gradient and twice by size exclusion chromatography using a Superdex S200 26/60 column (GE Healthcare) run in 10 mM Tris/HCl pH 8.0, 200 mM NaCl, 10 mM MgCl2, 1 mM DTT. Proteins were concentrated to ˜12 mg/mL for crystallization and flash frozen for storage.
# Biochemical Assay for Activation of Pyruvate Kinase R
# Activation of pyruvate kinase R (PKR) and pyruvate kinase M2 (PKM2) were measured using a luminescence based measurement of ATP generation and the Kinase-Glo luminescent kinase reagent kit.
# T1 sequence (P30613 14-574): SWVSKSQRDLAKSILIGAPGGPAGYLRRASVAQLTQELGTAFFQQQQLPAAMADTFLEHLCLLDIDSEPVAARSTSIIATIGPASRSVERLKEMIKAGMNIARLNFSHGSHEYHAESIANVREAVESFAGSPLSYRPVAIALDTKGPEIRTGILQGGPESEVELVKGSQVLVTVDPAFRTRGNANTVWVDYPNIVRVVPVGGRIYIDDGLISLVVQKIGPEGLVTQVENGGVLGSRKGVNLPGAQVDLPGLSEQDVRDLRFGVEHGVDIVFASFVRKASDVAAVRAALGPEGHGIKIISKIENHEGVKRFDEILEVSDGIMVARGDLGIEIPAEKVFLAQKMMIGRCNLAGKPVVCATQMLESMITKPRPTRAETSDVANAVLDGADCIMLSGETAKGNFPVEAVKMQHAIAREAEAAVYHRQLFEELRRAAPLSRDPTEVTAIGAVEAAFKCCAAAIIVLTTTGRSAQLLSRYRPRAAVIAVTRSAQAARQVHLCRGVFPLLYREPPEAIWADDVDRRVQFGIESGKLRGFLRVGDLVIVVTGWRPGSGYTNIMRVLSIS
Compound,AC50 [µM],PKR % activation [%]
"O=C(N1Cc2cn(S(=O)(=O)c3ccc4ncsc4c3)nc2C1)[C@@]1(c2ccccc2)CCCN1 (single isomer, unassigned) [Compound 61, 6-({5-[(2S)-2-phenylpyrrolidine-2-carbonyl]-2H,4H,5H,6H-pyrrolo[3,4-c]pyrazol-2-yl}sulfonyl)-1,3-benzothiazole or 6-({5-[(2R)-2-phenylpyrrolidine-2-carbonyl]-2H,4H,5H,6H-pyrrolo[3,4-c]pyrazol-2-yl}sulfonyl)-1,3-benzothiazole]",0.452,48
"C[C@@H](O)[C@H](C(=O)N1Cc2cn(S(=O)(=O)c3ccc4cn[nH]c4c3)nc2C1)c1ccccc1 (single isomer, unassigned) [Compound 62]",0.047,115
"C[C@@H](O)[C@@H](C(=O)N1Cc2cn(S(=O)(=O)c3ccc(OC(F)F)cc3)nc2C1)c1ccccc1Cl (single isomer, unassigned) [Compound 66]",0.013,142
"C[C@@H](O)[C@@H](C(=O)N1Cc2cn(S(=O)(=O)c3ccc(OC(F)F)cc3)nc2C1)c1ccccc1Cl (single isomer, unassigned) [Compound 68]",0.01,179
"C[C@@H](O)[C@@H](C(=O)N1Cc2cn(S(=O)(=O)c3cnc4c(c3)OCCO4)nc2C1)c1ccccc1Cl (single isomer, unassigned) [Compound 70]",0.015,80

# Continued, in another order:
AC50 [µM],Compound,PKR % activation [%]
0.0047,"CC(O)C(C(=O)N1Cc2cn(S(=O)(=O)c3ccc4ncsc4c3)nc2C1)c1ccccc1Cl (single isomer, unassigned) [Compound 69]",–
0.0089,"O=C(C(CO)c1ccccc1Cl)N1Cc2cn(S(=O)(=O)c3cnc4c(c3)OCCO4)nc2C1 (single isomer, unassigned) [Compound 71, (2S,3R)-2-(2-chlorophenyl)-1-(2-[2H,3H[1,4]dioxino[2,3-b]pyridine-7-sulfonyl]-4H,6H-pyrrolo[3,4-c]pyrazol-5-yl)-3-hydroxybutan-1-one or (2R,3R)-2-(2-chlorophenyl)-1-(2-[2H,3H-[1,4]dioxino[2,3-b]pyridine-7-sulfonyl]-4H,6H-pyrrolo[3,4-c]pyrazol-5-yl)-3-hydroxybutan-1-one]",–
0.0085,"O=C([C@H](O)c1ncccc1F)N1Cc2cn(S(=O)(=O)c3ccc4ncsc4c3)nc2C1 (single isomer, unassigned) [Compound 74, (2R)-1-[2-(1,3-benzothiazole-6-sulfonyl)-2H,4H,5H,6H-pyrrolo[3,4-c]pyrazol-5-yl]-2-(3-fluoropyridin-2-yl)-2-hydroxyethan-1-one or (2S)-1-[2-(1,3-benzothiazole-6-sulfonyl)-2H,4H,5H,6H-pyrrolo[3,4-c]pyrazol-5-yl]-2-(3-fluoropyridin-2-yl)-2-hydroxyethan-1-one]",100
0.025,"COc1ccc(S(=O)(=O)n2cc3c(n2)CN(C(=O)[C@H](O)c2ncccc2F)C3)cc1 (single isomer, unassigned) [Compound 87, (2R)-2-(3-fluoropyridin-2-yl)-2-hydroxy-1-[2-(4-methoxybenzenesulfonyl)-2H,4H,5H,6H-pyrrolo[3,4-c]pyrazol-5-yl]ethan-1-one or (2R)-2-(3-fluoropyridin-2-yl)-2-hydroxy-1-[2-(4-methoxybenzenesulfonyl)-2H,4H,5H,6H-pyrrolo[3,4-c]pyrazol-5-yl]ethan-1-one]",156
0.0079,"O=C([C@H](CO)c1ncccc1F)N1Cc2cn(S(=O)(=O)c3ccc(OC(F)F)cc3)nc2C1 (single isomer, unassigned) [Compound 89, (2S)-1-{2-[4-(difluoromethoxy)benzenesulfonyl]-2H,4H,5H,6H-pyrrolo [3,4-c]pyrazol-5-yl}-2-(3-fluoropyridin-2-yl)-3-hydroxypropan-1-one or (2R)-1-{2-[4-(difluoromethoxy)benzenesulfonyl]-2H,4H,5H,6H-pyrrolo[3,4-c]pyrazol-5-yl}-2-(3-fluoropyridin-2-yl)-3-hydroxypropan-1-one]",132
